The species named for experiment [1] is Rattus norvegicus. Briefly: animal or person. As to conditions: Sprague-Dawley, po, read-out: INH.
For experiment [2], the species on record is Rattus norvegicus. Briefly: animal or person. As to conditions: Sprague-Dawley, po, read-out: INH. The source holds these as a separate data set.
Experiment [3] has as its system Rattus norvegicus. The experiment in a line: Antidiabetic activity in po dosed Sprague-Dawley rat assessed as inhibition of glucose excursion administered 30 mins prior glucose challenge measured over 30 to 120 mins post challenge by OGTT. It counts as functional, organism-based.
The species named for experiment [4] is Rattus norvegicus. Briefly: animal or person. The settings on record: Sprague-Dawley, po, read-out: INH. This is another data set of the same source.

On to `N#C[C@@H]1CCCN1C(=O)[C@@H](N)Cc1ccc(-c2cn(Cc3ccc(F)cc3)nn2)cc1`, for which the inhibition in vivo at 3 mg/kg in the experiment filed under Rattus norvegicus [1] was 21.7%. In the experiment filed under Rattus norvegicus [2], the inhibition in vivo at 1 mg/kg amounted to 20.8%. Also, the inhibition entry in the experiment with Rattus norvegicus [3] was “Dose-dependent effect”. The inhibition in vivo at 10 mg/kg in the experiment filed under Rattus norvegicus [4] stood at 28.8%.

Source of the values: ChEMBL document CHEMBL2417472, “Synthesis and biological evaluation of novel benzyl-substituted (S)-phenylalanine derivatives as potent dipeptidyl peptidase 4 inhibitors” (Bioorg Med Chem, 2013).
